Laboratory results as given in ChEMBL document CHEMBL2029308, “Synthesis and anti-leishmanial activity of 1-aryl-β-carboline derivatives against Leishmania donovani” (Bioorg Med Chem Lett, 2012).

Experiments:
Leishmania donovani = assay: Antileishmanial activity against Leishmania donovani MHOM/ET/67/HU3 after 72 hrs by MTT assay; type: functional, organism-based; details: MHOM/ET/67/HU3, 72 h
[1] = Cytotoxicity against mouse peritoneal macrophages; type: cell-based, Peritoneal macrophage cell
[2] = Selectivity ratio of CC50 for mouse peritoneal macrophages to IC50 for Leishmania donovani MHOM/ET/67/HU3

Compound	IC50 (Leishmania donovani)	CC50 [1]	Ratio CC50/IC50 [2]
CCCCCCCCCCCC(=O)Nc1ccc(-c2nccc3c2[nH]c2ccccc23)cc1	> 100 µM	> 50 µM	
O=C(O)C1Cc2c([nH]c3ccccc23)C(c2ccc([N+](=O)[O-])cc2)N1 (stereo unspecified)	> 100 µM	> 50 µM	
O=C(Nc1ccc(-c2nccc3c2[nH]c2ccccc23)cc1)c1ccc(F)cc1F	> 100 µM	> 50 µM	
Nc1ccc(-c2nccc3c2[nH]c2ccccc23)cc1	46.6 µM	> 50 µM	
CCCCCCCCCCCCCC(=O)Nc1ccc(-c2nccc3c2[nH]c2ccccc23)cc1	> 100 µM	> 50 µM	
O=C(Nc1ccc(-c2nccc3c2[nH]c2ccccc23)cc1)c1ccc2ccccc2c1	8.84 µM	> 50 µM	
O=C(/C=C/c1ccccc1)Nc1ccc(-c2nccc3c2[nH]c2ccccc23)cc1	7.7 µM	> 50 µM	
O=C(Nc1ccc(-c2nccc3c2[nH]c2ccccc23)cc1)c1ccc(C(F)(F)F)cc1	> 100 µM	> 50 µM	
CCCCC(=O)Nc1ccc(-c2nccc3c2[nH]c2ccccc23)cc1	19.7 µM	> 50 µM	
CCCCCCCCCCCCCCCCOP(=O)([O-])OCC[N+](C)(C)C [MILTEFOSINE]	12.1 µM		
C=CCCCCCCCCC(=O)Nc1ccc(-c2nccc3c2[nH]c2ccccc23)cc1	> 100 µM	> 50 µM	
O=C(Nc1ccc(-c2nccc3c2[nH]c2ccccc23)cc1)c1cccs1	15 µM	> 50 µM	
O=C(Nc1ccc(-c2nccc3c2[nH]c2ccccc23)cc1)c1ccccc1	9.68 µM	> 50 µM	
CC(C)(C)c1ccc(C(=O)Nc2ccc(-c3nccc4c3[nH]c3ccccc34)cc2)cc1	> 100 µM	> 50 µM	
N#Cc1ccc(C(=O)Nc2ccc(-c3nccc4c3[nH]c3ccccc34)cc2)cc1	5.31 µM	> 50 µM	
CC(=O)Nc1ccc(-c2nccc3c2[nH]c2ccccc23)cc1	2.16 µM	> 50 µM	>20
O=[N+]([O-])c1ccc(-c2[nH]ccc3c4ccccc4nc2-3)cc1	> 100 µM	> 50 µM	
O=C(Nc1ccc(-c2nccc3c2[nH]c2ccccc23)cc1)c1ccco1	6.38 µM	> 50 µM	
Cc1cc(C(=O)Nc2ccc(-c3nccc4c3[nH]c3ccccc34)cc2)c(C)o1	30.1 µM	> 50 µM	
Cc1ccc(C(=O)Nc2ccc(-c3nccc4c3[nH]c3ccccc34)cc2)cc1	14.3 µM	> 50 µM	
O=C(Nc1ccc(-c2nccc3c2[nH]c2ccccc23)cc1)c1cccc2ccccc12	> 100 µM	> 50 µM	
COc1ccc(C(=O)Nc2ccc(-c3nccc4c3[nH]c3ccccc34)cc2)cc1	12.3 µM	> 50 µM	
O=C(Nc1ccc(-c2nccc3c2[nH]c2ccccc23)cc1)c1ccc(F)c(F)c1	13.1 µM	> 50 µM	
